Tests used:
[1] = system: NuRD complex members (MBD2, MBD3, GATAD2B); assay: Cysteine reactivity profiles of NuRD complex members in treated T cells; format: binding, human; settings: 3 h treatment
Protocol: (§1) FIG. 7B is a scatter plot representation of protein abundance changes caused by BPK-25 (10 μM, 24 h) in two independent replicate experiments, with decreases in NuRD complex components highlighted in red. FIG. 7C is a heatmap of top proteins with decreased abundance in BPK-25-treated T cells showing that the subset of these proteins in the NuRD complex (asterisks) were largely unaltered by other active compounds and blocked in their degradation by co-treatment with the proteasome inhibitor MG132. […] FIG. 7E is a bar graph […] showing time-dependent reductions in NuRD complex members in human T cells treated with BPK-25 (10 μM). Left, representative western blots. Right, quantification of changes in protein. […]
(§2) At individual TMT experiment level, the following filters were applied to remove low-quality peptides: removal of non-unique peptides; removal of half-tryptic peptides; removal of peptides with more than one internal miscleaved site; removal of peptides with low (<10,000) sum of reporter ion intensities for control channels, and peptides with high variation between the replicate control channels (coefficient of variance >0.5). R values (compound-treated vs. DMSO-treated) for each peptide entry were calculated using the reporter ion intensities of DMSO and compound treated TMT channels for each treatment group with a maximum ratio cap of 20. […]

[2] = target: T1, NuRD complex members (MBD2, MBD3, GATAD2B) (Homo sapiens, UniProt Q8WXI9); assay: as above; format: binding
T1 construct: endogenous in cells; host or cells: primary human T cells, 3 h treatment
T1 sequence (Q8WXI9 whole entry, one chain of several): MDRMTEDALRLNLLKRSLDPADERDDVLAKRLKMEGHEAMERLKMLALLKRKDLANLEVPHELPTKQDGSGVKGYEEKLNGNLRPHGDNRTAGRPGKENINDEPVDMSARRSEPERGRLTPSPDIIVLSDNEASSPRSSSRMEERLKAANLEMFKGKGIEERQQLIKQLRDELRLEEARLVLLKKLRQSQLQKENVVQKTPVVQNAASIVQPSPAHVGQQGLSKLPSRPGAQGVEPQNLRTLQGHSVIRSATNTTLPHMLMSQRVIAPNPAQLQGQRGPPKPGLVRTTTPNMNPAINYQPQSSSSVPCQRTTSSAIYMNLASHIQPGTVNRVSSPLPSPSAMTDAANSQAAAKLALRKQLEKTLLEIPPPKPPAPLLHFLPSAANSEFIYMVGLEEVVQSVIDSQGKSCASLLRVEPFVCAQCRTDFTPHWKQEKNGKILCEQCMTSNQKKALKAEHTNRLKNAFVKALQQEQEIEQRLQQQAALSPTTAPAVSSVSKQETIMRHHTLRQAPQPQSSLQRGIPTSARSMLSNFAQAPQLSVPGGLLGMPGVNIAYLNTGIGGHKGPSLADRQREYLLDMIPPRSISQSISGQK
Protocol: as §1, §2

SMILES	reduction in C10/11 and C359 in MBD2, C266 in MBD3, and C308 of GATAD2B (cysteine reactivity profiles) [1]	apparent reactivity of C308 of GATAD2B [2]
C=CC(=O)N(Cc1cccc(Cl)n1)c1ccc(C(=O)Nc2ccccc2)nc1 [BPK-25]	~50%	–
COC(=O)/C=C/C(=O)OC [DMF, reference compound]	–	decreased the apparent reactivity
